Experimental data from patent US9127085B2, “Compositions of humanized notch fusion proteins and methods of treatment” (THE TRUSTEES OF COLUMBIA UNIVERSITY IN THE CITY OF NEW YORK, priority 2007, dated 2015).
Entries after “also recorded” stand apart in the source; their conditions may differ.

Legend:
Ad-N1IC-transduced HUVEC = experiment: Notch (Ad-N1IC)-induced HUVEC budding; type: cell-based, human
Description: HUVEC were transduced with either Ad-LacZ or Ad-N1IC at 40 MOI. FIGS. 23A-23C show the effect of inhibitors for receptor tyrosine kinases on Notch-induced HUVEC budding. FIG. 23A is a photograph of budding of Ad-N1IC-transduced HUVEC treated with PD166866, ZD1893 at 1 μM and SU5416 at 0.5 μM. […] FIGS. 23D-E show induction of Flt-1 expression in Ad-N1IC-transduced HUVEC. […] FIGS. 23F-G show promotion of Notch-induced HUVEC budding with PlGF stimulation. Ad-N1IC-transduced HUVEC were cultured on collagen gel with SFM, instead of complete medium, in the absence or presence of 50 ng/ml PlGF. […] FIGS. 23H-I show the effect of Flt-1 siRNA transfection on Flt1 expression. Ad-N1IC-transduced HUVEC were transfected with 200 pmol of either control (CT) or Flt-1 siRNA. […] Ad-N1IC-transduced HUVEC were transfected with either 100 or 200 pmol of siRNA and cultured on collagen gel for 2 days.
Either Ad-LacZ or Ad-N1IC-HUVEC at a MOI of 40 pfu/cell were cultured on collagen gel for 5 days in the absence or presence of GM6001 at 50 μm.
For making collagen gels, an ice-cold solution of porcine type I collagen (Nitta gelatin, Tokyo, Japan) was mixed with 10×RPMI1640 medium and neutralization buffer at the ratio of 8:1:1. 400 μl aliquots of collagen gel were then added to 24-well plates and allowed to gel for at least 1 hour at 37° C. Following adenoviral infection (above), HUVEC was harvested and plated at 1.3×10^5 cells per well onto the top of the collagen gel in 24-well plates in 0.8 ml of EGM2 medium. HUVEC became nearly confluent 48 hours after plating. After seeding, medium was changed every 2 days for 1 week. Sprouting was observed and photographs taken after 8 days with an Olympus digital camera mounted to a microscope. For quantification of the number of sprouts, 5 fields per each well were randomly selected and sprouting was counted under microscopy in a blind manner by two investigators.

[1] = system: VEGF induced retinal microvascular permeability and vasoconstriction; conditions: subcutaneous injection; diabetic rat model; cited from earlier work
[2] = system: CBF1 promoter activity in Ad-VEGF-infected HUVEC; experiment: VEGF-induced Notch signaling, CBF1 (CSL) promoter reporter in HUVEC; type: cell-based, human; conditions: SU5416 treatment of Ad-VEGF-transduced HUVEC
Description: To determine VEGF-induced Notch signaling, HUVEC which were infected with adenovirus were used. HUVEC plated 1-day prior in 6 well plates at 8.0×10^5 were infected with either Ad-LacZ as control or Ad-VEGF at indicated m.o.i. in the presence or absence of Ad-N1ECD/Fc. Two days after infection, infected HUVEC were re-seeded into 24-well plate at 1.5×10^5 cell in triplicate and cultured for 24 hours, and then transfected with 12.5 ng pRL-SV40 (Promega) and 137.5 ng pGA981-6 using Effectene transfection reagent (Qiagen). Cells were harvested either 1 or 2 days post-transfection and luciferase activity was determined by using the Dual-Luciferase® Reporter Assay System (Promega).
One can measure Notch signaling function by measuring transcriptional activity of CBF1 promoter, which is activated by binding of Notch-IC to CBF1. We measured CBF1 promoter activity in HUVEC which was infected with adenovirus encoding VEGF-165 at different MOI (FIG. 6). Induction of CBF1 promoter was clearly detected in Ad-VEGF-infected HUVEC, compared to Ad-LacZ-infected cells in the MOI dependent manner. […] Thus VEGF induced Notch signaling activity.

[3] = system: retinal neovascularization; conditions: intravitreal injection; hypoxic mouse model; cited from earlier work
[4] = system: Jagged1 and Dll1 expression in Mm5MT-FGF4 cells; experiment: Quantitative RT-PCR of Notch ligands in Mm5MT-FGF4 transfectants; type: cell-based, mouse; conditions: 1 μm PD166866, 7 days
Description: Mm5MT transfectants were cultured 7 days with vehicle or 1 μm PD166866 (inhibitor of FGF receptor-kinase), total RNA isolated (RNeasy mini-kit, Qiagen, Valencia, Calif.), and first-strand cDNA synthesized (SuperScript™ First-Strand Synthesis System, Invitrogen). Quantitative RT-PCR for β-actin, FGF4, Jagged1, Dll1, and Dll4 (SYBER Green PCR Master Mix, 7300 Real Time PCR; Applied Biosystems, Foster City, Calif.) was performed in triplicate and values normalized for β-actin. Values are shown for fold induction compared to controls (primer sequences available on request).

[5] = system: Ad-Notch4 transduced HUVEC; experiment: Endothelial co-culture morphogenesis assay (Notch4-induced extensions on fibrin gel); type: cell-based, human; conditions: 200 nM compound E vs vehicle
Description: HUVEC morphogenesis was assessed as described (11), modified by adding co-culturing of Ad-Notch4 transduced HUVEC with Notch1 decoy- or Fc-HUVEC transfectants. Ad-GFP at 10 m.o.i. was co-transduced in HUVECs with Ad-LacZ or Ad-Notch4 at 30 m.o.i and 48 h later seeded on fibrin gels (24-well plates, 1.5×10^4 cells/well). Stable HUVEC-mock (HUVEC-X), HUVEC-Fc, or HUVEC-N1ECDFc transfectants were seeded at 1.35×10^5 cells/well, and vehicle or 200 nM compound E added 3 h later. Seven days later, HUVEC morphogenesis was calculated as the number of GFP-positive cells with processes compared to total GFP-positive cells/field.

C2C12 cells = experiment: C2C12 myoblast differentiation; type: cell-based; conditions: C2C12 transduced with Foxo1-ADA
Description: FIGS. 38A-38C These Figures show the quantitative analysis of C2C12 differentiation. […] Results from differentiation experiments were analyzed by scoring the number of Myosin-immunostained cells as percentage of all DAPI-positive cells. […] We carried out reporter gene assays using the canonical Foxo1-responsive Igfbp1 promoter (left panel) and the Hes1 promoter (right panel) in cells co-transfected with Foxo1-ADA or DBD-Foxo1ADA. […] An asterisk indicates P<0.01 by ANOVA.
C2C12 cells were differentiated as described (3, 4). Foxo1-ADA, Notch1-IC, Jagged1, Csl and Notch decoy adenoviral and mammalian expression vectors have been described (36, 51). We generated retroviruses expressing Foxo1-ADA and Notch1-IC using the pQCXIH vector. To generate Notch decoy (pAdlox Notch1ECD-Fc), the extracellular domain of Notch1(bp 241-4229, GenBank accession# X57405) was fused in frame with human IgG Fc tag and cloned into pAdlox. Retroviral supernatant was produced from cells transiently co-transfected with pVSV-G vector and designated pQCXIH vector into GP2-293 cells (BD Bioscience). To generate the DNA binding-deficient Foxo1, we replaced N208 and H212 with alanine and arginine, respectively, using QuikChange Mutagenesis Kit (Stratagene). The mutations were then cloned in the backbone of the Foxo1-ADA mutant. […]

[6] = Ad-N1IC at 40 MOI, receptor tyrosine kinase inhibitors at 1 μM

Cc1cc(C)c(/C=C2\C(=O)Nc3ccccc32)[nH]1 [SU5416]
budding of Ad-N1IC-HUVEC (Ad-N1IC-transduced HUVEC; [6]): clearly inhibited | viability of Ad-N1IC-HUVEC (dose-dependency of SU5416) (Ad-N1IC-transduced HUVEC; lower concentrations of SU5416): less reduction of viability at lower concentrations | VEGF induced retinal microvascular permeability and vasoconstriction [1]: suppresses VEGF induced retinal microvascular permeability and vasoconstriction | VEGF-induced CSL-luciferase reporter activity [2]: decreased VEGF-induced CSL-luciferase reporter activity

Clc1ccc(Nc2nnc(Cc3ccncc3)c3ccccc23)cc1 [PTK/ZK]
retinal neovascularization [3]: reduces retinal neovascularization

COc1cc(OC)cc(-c2cc3cnc(N)nc3nc2NC(=O)NC(C)(C)C)c1 [PD166866]
budding of Ad-N1IC-HUVEC (Ad-N1IC-transduced HUVEC; [6]): Neither PD166866 or ZD1893 affected budding | FGF4-induced Jagged1 and Dll1 expression [4]: suppressed induction of both Jagged1 and Dll1; also recorded: reduction of Notch ligand expression

C[C@H](NC(=O)Cc1cc(F)cc(F)c1)C(=O)N[C@H]1N=C(c2ccccc2)c2ccccc2N(C)C1=O [Compound E]
Notch4-induced HUVEC extensions ([5]; p<0.0001): clearly inhibited extensions | Notch4-induced HUVEC extensions ([5]; p<0.0001, listed as compound E): blocks Notch4-induced extensions | rescue of Foxo1-ADA inhibition of myoblast differentiation (C2C12 cells): also rescued Foxo1-ADA inhibition of myoblast differentiation

CNC(=O)[C@H](Cc1c[nH]c2ccccc12)NC(=O)[C@@H](CC(=O)NO)CC(C)C [GM6001]
budding of Ad-N1IC-HUVEC (Ad-N1IC-transduced HUVEC; GM6001 at 50 μm, 5 days, collagen and fibrin gel): clearly decreased budding of Ad-N1IC-HUVEC

B1: PlGF: a selective ligand for Flt1 (protein, UniProt P49763 19-221, looked up)
Placenta growth factor: LPAVPPQQWALSAGNGSSEVEVVPFQEVWGRSYCRALERLVDVVSEYPSEVEHMFSPSCVSLLRCTGCCGDENLHCVPVETANVTMQLLKIRSGDRPSYVELTFSQHVRCECRHSPGRQSPDMPGDFRADAPSFLPPRRSLPMLFRMEWGCALTGSQSAVWPSSPVPEEIPRMHPGRNGKKQQRKPLREKMKPERCGDAVPRR
increase in HUVEC buds containing multiple filopodia (Ad-N1IC-transduced HUVEC; 50 ng/ml PlGF, SFM): 250% | increase in number of Ad-N1IC-HUVEC buds (Ad-N1IC-transduced HUVEC; 50 ng/ml PlGF, SFM, compared to the absence of PlGF): 150%
